Literature values as cited in patent US20200253976A1, “Endothelial Facilitation in Neurodegerative Diseases by Cerebral Blood Flow Enhancement” (UNIVERSITY OF MASSACHUSETTS, priority 2017, published 2020).
Like-named read-outs stand apart in the source and are kept apart here.

How the values were obtained:
[1] = phase 2 study
[2] = system: NOS; conditions: mouse ovarian follicles; L-arginine omitted
[3] = biological target: T1, eNOS (Homo sapiens, UniProt P29474); conditions: endothelial dysfunction where l-arginine is rate-limiting
T1 sequence (P29474 1-1203): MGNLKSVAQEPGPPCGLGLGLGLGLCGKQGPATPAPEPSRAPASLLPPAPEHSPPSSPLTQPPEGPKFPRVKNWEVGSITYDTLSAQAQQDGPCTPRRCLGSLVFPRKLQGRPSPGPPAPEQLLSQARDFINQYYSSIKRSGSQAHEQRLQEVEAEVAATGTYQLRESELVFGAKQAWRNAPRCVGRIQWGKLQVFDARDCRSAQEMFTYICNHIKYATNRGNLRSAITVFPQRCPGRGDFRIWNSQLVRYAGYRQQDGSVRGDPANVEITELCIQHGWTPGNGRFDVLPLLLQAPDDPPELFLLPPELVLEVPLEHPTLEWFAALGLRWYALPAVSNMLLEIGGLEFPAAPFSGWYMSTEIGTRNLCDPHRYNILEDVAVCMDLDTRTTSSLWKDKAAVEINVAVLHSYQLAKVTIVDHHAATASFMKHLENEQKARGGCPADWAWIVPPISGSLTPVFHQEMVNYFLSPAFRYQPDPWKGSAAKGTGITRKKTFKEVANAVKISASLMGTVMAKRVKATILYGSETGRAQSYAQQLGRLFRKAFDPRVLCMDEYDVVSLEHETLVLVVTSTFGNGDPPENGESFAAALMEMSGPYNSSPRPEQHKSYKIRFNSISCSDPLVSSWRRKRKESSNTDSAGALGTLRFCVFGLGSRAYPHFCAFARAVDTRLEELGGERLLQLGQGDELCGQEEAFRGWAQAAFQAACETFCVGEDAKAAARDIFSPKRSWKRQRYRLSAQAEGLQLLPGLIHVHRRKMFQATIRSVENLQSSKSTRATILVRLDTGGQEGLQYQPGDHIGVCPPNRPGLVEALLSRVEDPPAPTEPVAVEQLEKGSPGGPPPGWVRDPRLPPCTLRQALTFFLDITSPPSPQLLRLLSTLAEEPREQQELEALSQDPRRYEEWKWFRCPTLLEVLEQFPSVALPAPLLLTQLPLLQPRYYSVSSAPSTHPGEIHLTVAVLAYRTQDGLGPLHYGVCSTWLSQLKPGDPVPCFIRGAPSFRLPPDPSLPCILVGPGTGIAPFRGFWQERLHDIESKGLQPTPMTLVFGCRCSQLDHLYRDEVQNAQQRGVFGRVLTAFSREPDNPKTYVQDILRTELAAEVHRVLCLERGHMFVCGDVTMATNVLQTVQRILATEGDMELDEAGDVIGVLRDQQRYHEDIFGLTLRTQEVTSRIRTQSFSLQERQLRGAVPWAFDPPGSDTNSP

[4] = in vivo
[5] = system: treated subjects with Alzheimer's disease; conditions: human trial in AD, stopped prematurely
[6] = system: patients with AD

For `NC(=O)[C@@H](CCC(F)(F)F)N(Cc1ccc(-c2ncon2)cc1F)S(=O)(=O)c1ccc(Cl)cc1` [Avagacestat], the cognitive benefit [1] is given as “no cognitive benefit”.

In the case of `NC(=O)NCCC[C@H](N)C(=O)O` [L-citrulline], the “compensation for L-arginine withdrawal (NOS phenotype)” value [2] is given as “partial compensation” and the “eNOS activity on supplementation” value [3] is given as “fully restored”.

In the case of `NC(=NCCC[C@H](N)C(=O)O)NO` [NG-hydroxy-L-arginine], the “compensation for L-arginine withdrawal (NOS phenotype)” value [2] is listed as “partial compensation”.

In the case of `C[C@H](O)[C@H](O)[C@H]1CNc2nc(N)[nH]c(=O)c2N1` [Sapropterin, tetrahydrobiopterin], the “abdominal pain, frequency” value (gastrointestinal side effect) is given as 5%, the “diarrhea, frequency” value (gastrointestinal side effect) is given as 8% and the “nausea, frequency” value (gastrointestinal side effect) is given as 4%. For the same compound, the “vomiting, frequency” value (gastrointestinal side effect) was 8%, the “headache, frequency” value (in vivo) was 15% and the “nasal discharge, frequency” value (upper respiratory symptom) was 11%. The “pain in throat, frequency” value (upper respiratory symptom) was 10% and the “upper respiratory infection, frequency” value (upper respiratory symptom) was 12-17%.

For `C[C@@H](C(=O)O)c1ccc(-c2ccccc2)c(F)c1` [Tarenflurbil], the “benefit in AD” value [4] is listed as “failed to produce any benefit”.

For `CC(C)[C@H](O)C(=O)N[C@@H](C)C(=O)N[C@@H]1C(=O)N(C)CCc2ccccc21` [semagacestat], the “cognitive performance of treated subjects versus control / placebo” value [5] is given as “significantly worse cognitive performance than control subjects” and the “cognitive performance of treated subjects versus control / placebo” value ([5]; listed as Semagacestat) is given as “exacerbated cognitive decline compared with placebo”.

In the case of “AN-1792: Abeta active immunization (Elan Pharmaceuticals, Inc.)”, the “Aβ in the brain of treated subjects” value ([6]; active immunization) is listed as “decreased Aβ markedly”, the progression of dementia ([6]; active immunization, even when the amyloid plaques had been removed) is listed as “failed to decrease the progression of dementia” and the “brain atrophy on quantitative imaging versus control subjects” value ([6]; treated subjects with immunological response and decreased amyloid burden) is listed as “greater brain atrophy”. The autoimmune encephalopathy ([6]; trial stopped) was “several subjects developed an autoimmune encephalopathy”.
